Measured values reported in patent publication US20160154122A1, “Scintillating Organic Materials and Methods For Detecting Neutron and Gamma Radiation” (Nanoptics, Incorporated, priority 2011, published 2016).
Where two headings read alike, the source gives them in different places.

Tests used:
[1] = Solubility of base dye in polystyrene; format: physicochemical; details: base dye measured to be soluble in polystyrene
[2] = result in words; cited from earlier work
[3] = Text: Salts of lithium can have a variety of properties, including one or more of the following: many salts of lithium are very chemically reactive; others are extremely insoluble; some are not produced in high volume and are, therefore, expensive to use at high concentration; and others have elements with moderate to high atomic numbers, causing quenching of the scintillation light.
[4] = result in words; cited from earlier work; remark: listed apart in the source

In the case of `Cc1cccc2ccccc12` [1-Methyl Naphthalene], the “Solubility” value [1] was >1000 mM.

With `c1ccc(-c2cnc(-c3ccccc3)o2)cc1` [2,5 Diphenyloxazole] the “Solubility” value [1] was >1500 mM.

For `Cc1ccc2ccccc2c1` [2-Methyl Naphthalene], the “Solubility” value [1] was >1000 mM.

For `CN1CCN(C)C1=O` [DMI, 1,3 Dimethyl 2-Imidazolidone], the Miscibility with water [2] is given as “miscible”.

In the case of `O=C([O-])c1ccccc1.[Li+]` [Lithium Benzoate], the “Percentage wt of Lithium in Solution H2O” value [3] was 2.40 % wt/wt.

For `[Cl-].[Li+]` [Lithium Chloride], the “Solubility of Compound (wt %) DIM” value [3] was >15.0 wt %, the “Solubility of Compound (wt %) DMSO” value [3] was 10.20 wt % and the “Solubility of Compound (wt %) H2O” value [3] was 83.50 wt %.

In the case of `[Li+].[O-][Cl+3]([O-])([O-])[O-]` [Lithium Perchlorate], the “Percentage wt of Lithium in Solution DMSO” value ([3]; achievable lithium ions in DMSO) was 2.05 % wt/wt, the “Percentage wt of Lithium in Solution H2O” value ([3]; achievable lithium ions in H2O) was 3.70 % wt/wt and the “Solubility of Compound (wt %) DMSO” value ([3]; maximum solubility in DMSO) was 31.50 wt %. The “Solubility of Compound (wt %) H2O” value ([3]; maximum solubility in H2O) was 56.10 wt %.

For `C=CN1CCCC1=O` [N-Vinyl-2-Pyrrolidone], the Hygroscopic [4] is listed as “Yes”.

For `CN1CCCC1=O` [NMP, Methylpyrrolidone], the Miscibility with water [2] is given as “miscible”.

For `c1ccc2ccccc2c1` [Naphthalene], the “Solubility” value [1] was >1000 mM.

In the case of `Cc1ccc(C)cc1` [p-Xylene], the “Solubility” value [1] was >1000 mM.

In the case of `Cc1ccc(C)c(C)c1` [pseudocumene], the “Solubility” value [1] was >1000 mM.
